Columns and labels:
[1] = biological target: CRBN-DDB1 protein complex (Homo sapiens, UniProt Q96SW2); assay: Fluorescence Polarization (FP) assay, displacement of Cy5-labelled thalidomide; details: 25 nM CRBN-DDB1, 5 nM Cy5-labelled thalidomide, read-out: CRBN binding Ki
Protocol: CRBN-DDB1 protein complex was mixed with Cy5-labelled thalidomide and a compound to be tested (the “test compound”). […] The test solution was added to a 384-well assay plate.
The plate was spun-down (1 min, 1000 rpm, 22° C.) and then shaken using a VibroTurbulator for 10 min at room temperature (20-25° C.), with the frequency set to level 3. The assay plate with protein and the tracer was incubated for 60 min at room temperature (20-25° C.) prior to read-out with a plate reader.
The FP experiment was carried out with various concentrations of the test compounds in order to measure Ki values.

IKZF1 = IKZF1 degradation assay, H929 cell line (Western blot densitometry); type: cell-based; details: 20 μM
Protocol: Cells were seeded on 6- or 12-well plates, and the compounds to be tested were added at the desired concentration range. […] After 6 or 24 h incubation (3TC, 5% CO2), cells were harvested, washed and cell lysates were prepared using RIPA lysis buffer. The amount of protein was determined via BCA assay, and the appropriate quantity was then loaded on the precast gel for the protein separation. After primary and secondary Ab staining, the membranes were washed and signals developed. The densitometry analysis was implemented to obtain the numeric values used later in the protein level evaluation process. […] The treatment with all compounds was carried out for 24 h.

CRBN-DDB1 protein complex, sequence (Q96SW2 whole entry): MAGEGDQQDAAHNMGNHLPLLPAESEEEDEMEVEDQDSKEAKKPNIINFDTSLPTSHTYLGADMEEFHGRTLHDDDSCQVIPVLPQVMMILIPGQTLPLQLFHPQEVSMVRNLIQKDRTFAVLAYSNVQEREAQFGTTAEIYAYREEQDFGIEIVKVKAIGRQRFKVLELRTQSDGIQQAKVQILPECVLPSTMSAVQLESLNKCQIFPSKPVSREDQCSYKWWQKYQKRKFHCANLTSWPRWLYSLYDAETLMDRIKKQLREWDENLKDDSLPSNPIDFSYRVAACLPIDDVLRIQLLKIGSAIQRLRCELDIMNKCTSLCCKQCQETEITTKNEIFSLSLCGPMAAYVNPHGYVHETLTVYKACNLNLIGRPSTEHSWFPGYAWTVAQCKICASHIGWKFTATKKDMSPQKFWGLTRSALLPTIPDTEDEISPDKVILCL
CRBN-DDB1 protein complex, sequence (Q16531 whole entry partner): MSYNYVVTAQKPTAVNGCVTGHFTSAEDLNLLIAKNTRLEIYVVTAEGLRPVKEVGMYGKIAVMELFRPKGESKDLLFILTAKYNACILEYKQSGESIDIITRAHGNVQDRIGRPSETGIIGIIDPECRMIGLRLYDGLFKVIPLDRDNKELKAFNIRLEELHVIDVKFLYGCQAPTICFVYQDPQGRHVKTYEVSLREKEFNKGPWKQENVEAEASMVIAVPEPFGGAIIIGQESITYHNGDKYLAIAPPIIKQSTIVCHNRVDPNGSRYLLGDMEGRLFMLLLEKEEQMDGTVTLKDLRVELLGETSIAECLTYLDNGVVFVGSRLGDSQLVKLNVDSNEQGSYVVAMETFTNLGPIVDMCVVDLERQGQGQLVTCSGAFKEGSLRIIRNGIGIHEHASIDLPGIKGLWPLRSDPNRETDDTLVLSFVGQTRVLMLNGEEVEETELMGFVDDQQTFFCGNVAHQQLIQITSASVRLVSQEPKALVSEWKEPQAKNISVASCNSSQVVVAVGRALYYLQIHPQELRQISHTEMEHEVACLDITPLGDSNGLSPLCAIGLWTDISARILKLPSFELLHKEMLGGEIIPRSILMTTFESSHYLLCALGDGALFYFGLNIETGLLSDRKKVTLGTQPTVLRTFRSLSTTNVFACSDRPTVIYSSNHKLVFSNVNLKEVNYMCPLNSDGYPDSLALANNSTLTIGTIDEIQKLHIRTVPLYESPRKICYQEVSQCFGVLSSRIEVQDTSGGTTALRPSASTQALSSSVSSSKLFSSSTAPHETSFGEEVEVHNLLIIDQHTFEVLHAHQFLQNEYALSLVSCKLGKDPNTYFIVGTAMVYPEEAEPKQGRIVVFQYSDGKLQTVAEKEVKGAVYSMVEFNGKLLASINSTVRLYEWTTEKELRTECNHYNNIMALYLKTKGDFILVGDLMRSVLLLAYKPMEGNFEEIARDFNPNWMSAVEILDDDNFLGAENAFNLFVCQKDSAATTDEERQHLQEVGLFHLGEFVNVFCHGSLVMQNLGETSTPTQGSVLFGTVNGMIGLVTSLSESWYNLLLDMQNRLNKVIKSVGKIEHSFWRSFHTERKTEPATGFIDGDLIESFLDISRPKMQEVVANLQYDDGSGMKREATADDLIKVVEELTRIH

| Ki [1] | Structure (SMILES) | % of IKZF1 protein reduction, IKZF 1 (24 H, 20 μM) (IKZF1) |
| --- | --- | --- |
| < 5 µM | O=C1CCC(NC(=O)c2sc(Br)c3cccnc23)C(=O)N1 (stereo not shown) [Compound 96] | – |
| 5 to 10 µM | O=C1CCC(NC(=O)c2c[nH]c3nccc(Cl)c23)C(=O)N1 (stereo not shown) [Compound 97, 4-chloro-N-(2,6-dioxopiperidin-3-yl)-1H-pyrrolo[2,3-b]pyridine-3-carboxamide] | – |
| – | CC(=O)Nc1sc2c(c1C(=O)NC1CCC(=O)NC1=O)CCCC2 (stereo not shown) [Compound 105, N-(2,6-dioxopiperidin-3-yl)-2-acetamido-4,5,6,7-tetrahydro-1-benzothiophene-3-carboxamide] | ≤25% (≤25% for 0-25% of IKZF1 protein reduction) |
| 5 to 10 µM | CC(C)(C)OC(=O)NCc1nc(C(=O)NC2CCC(=O)NC2=O)cs1 (stereo not shown) [Compound 77, tert-butyl ((4-((2,6-dioxopiperidin-3-yl)carbamoyl)thiazol-2-yl)methyl)carbamate] | – |
| – | O=C1CCC(NC(=O)c2cc(Cl)sc2NC(=O)c2ccccc2)C(=O)N1 (stereo not shown) [Compound 45, 2-benzamido-5-chloro-N-(2,6-dioxopiperidin-3-yl)thiophene-3-carboxamide] | >25% (>25% for 26-74% of IKZF1 protein reduction) |
| 10 to 50 µM | CSc1ncc(C(=O)NC2CCC(=O)NC2=O)s1 (stereo not shown) [Compound 76, N-(2,6-dioxopiperidin-3-yl)-2-(methylthio)thiazole-5-carboxamide] | ≤25% (≤25% for 0-25% of IKZF1 protein reduction) |
| – | O=C1CCC(NC(=O)c2ccsc2-n2cccc2)C(=O)N1 (stereo not shown) [Compound 41, N-(2,6-dioxopiperidin-3-yl)-2-(1H-pyrrol-1-yl)thiophene-3-carboxamide] | ≤25% (≤25% for 0-25% of IKZF1 protein reduction) |
| 10 to 50 µM | NCc1csc(C(=O)NC2CCC(=O)NC2=O)c1 (stereo not shown) [Compound 52, 4-(aminomethyl)-N-(2,6-dioxopiperidin-3-yl)thiophene-2-carboxamide] | – |
| – | O=C1CCC(NC(=O)c2cnc(C(F)(F)F)s2)C(=O)N1 (stereo not shown) [Compound 72, N-(2,6-dioxopiperidin-3-yl)-2-(trifluoromethyl)thiazole-5-carboxamide] | ≤25% (≤25% for 0-25% of IKZF1 protein reduction) |
| 5 to 10 µM | Nc1ncc(C(=O)NC2CCC(=O)NC2=O)s1 (stereo not shown) [Compound 112, 2-amino-N-(2,6-dioxopiperidin-3-yl)thiazole-5-carboxamide] | – |
| 5 to 10 µM | CC(=O)Nc1ccsc1C(=O)NC1CCC(=O)NC1=O (stereo not shown) [Compound 7, N-(2,6-dioxopiperidin-3-yl)-3-acetamidothiophene-2-carboxamide] | ≤25% (≤25% for 0-25% of IKZF1 protein reduction) |
| 5 to 10 µM | COc1csc(NC(C)=O)c1C(=O)NC1CCC(=O)NC1=O (stereo not shown) [Compound 8, N-(2,6-dioxopiperidin-3-yl)-2-acetamido-4-methoxythiophene-3-carboxamide] | ≤25% (≤25% for 0-25% of IKZF1 protein reduction) |
| < 5 µM | Nc1sc(Cl)cc1C(=O)NC1CCC(=O)NC1=O (stereo not shown) [Compound 40, 2-amino-5-chloro-N-(2,6-dioxopiperidin-3-yl)thiophene-3-carboxamide] | ≤25% (≤25% for 0-25% of IKZF1 protein reduction) |
| 5 to 10 µM | O=C1CCC(NC(=O)c2c[nH]c3ncc(Cl)cc23)C(=O)N1 (stereo not shown) [Compound 99, 5-chloro-N-(2,6-dioxopiperidin-3-yl)-1H-pyrrolo[2,3-b]pyridine-3-carboxamide] | – |
| 5 to 10 µM | CNC(=O)c1cc(C(=O)NC2CCC(=O)NC2=O)c(NC(C)=O)s1 (stereo not shown) [Compound 14, 5-acetamido-N^4-(2,6-dioxopiperidin-3-yl)-5-acetamido-N^2-methylthiophene-2,4-dicarboxamide] | ≤25% (≤25% for 0-25% of IKZF1 protein reduction) |
| 10 to 50 µM | CCOc1oc(C)nc1C(=O)NC1CCC(=O)NC1=O (stereo not shown) [Compound 68, N-(2,6-dioxopiperidin-3-yl)-5-ethoxy-2-methyloxazole-4-carboxamide] | – |
| < 5 µM | COc1sc(C)cc1C(=O)NC1CCC(=O)NC1=O (stereo not shown) [Compound 30, N-(2,6-dioxopiperidin-3-yl)-2-methoxy-5-methylthiophene-3-carboxamide] | – |
| < 5 µM | O=C1CCC(NC(=O)c2cc(Cl)sc2NC(=O)C2CC2)C(=O)N1 (stereo not shown) [Compound 6, 5-chloro-2-cyclopropaneamido-N-(2,6-dioxopiperidin-3-yl)thiophene-3-carboxamide] | ≤25% (≤25% for 0-25% of IKZF1 protein reduction) |
| < 5 µM | CC(=O)Nc1sc(C#N)cc1C(=O)NC1CCC(=O)NC1=O (stereo not shown) [Compound 9, 5-cyano-N-(2,6-dioxopiperidin-3-yl)-2-acetamidothiophene-3-carboxamide] | ≤25% (≤25% for 0-25% of IKZF1 protein reduction) |
| < 5 µM | CC(C)(C)OC(=O)NCc1csc(C(=O)NC2CCC(=O)NC2=O)c1 (stereo not shown) [Compound 51, tert-butyl ((5-((2,6-dioxopiperidin-3-yl)carbamoyl)thiophen-3-yl)methyl)carbamate] | – |

| Ki [1] | Structure (SMILES) | % of IKZF1 protein reduction, IKZF 1 (24 H, 20 μM) (IKZF1) |
| --- | --- | --- |
| 10 to 50 µM | NCc1ccc(C(=O)NC2CCC(=O)NC2=O)s1 (stereo not shown) [Compound 50, 5-(aminomethyl)-N-(2,6-dioxopiperidin-3-yl)thiophene-2-carboxamide] | – |
| – | CC(=O)N(C)c1sccc1C(=O)NC1CCC(=O)NC1=O (stereo not shown) [Compound 2, N-(2,6-dioxopiperidin-3-yl)-2-(N-methylacetamido)thiophene-3-carboxamide] | ≤25% (≤25% for 0-25% of IKZF1 protein reduction) |
| 5 to 10 µM | COc1scc(C)c1C(=O)NC1CCC(=O)NC1=O (stereo not shown) [Compound 29, N-(2,6-dioxopiperidin-3-yl)-2-methoxy-4-methylthiophene-3-carboxamide] | – |
| 10 to 50 µM | O=C1CCC(NC(=O)c2ccoc2C2CC2)C(=O)N1 (stereo not shown) [Compound 47, 2-cyclopropyl-N-(2,6-dioxopiperidin-3-yl)furan-3-carboxamide] | – |
| 10 to 50 µM | CNc1scnc1C(=O)NC1CCC(=O)NC1=O (stereo not shown) [Compound 78, N-(2,6-dioxopiperidin-3-yl)-5-(methylamino)thiazole-4-carboxamide] | – |
| 10 to 50 µM | O=C1CCC(NC(=O)c2ccsc2C2CC2)C(=O)N1 (stereo not shown) [Compound 66, 2-cyclopropyl-N-(2,6-dioxopiperidin-3-yl)thiophene-3-carboxamide] | – |
| 10 to 50 µM | Cn1cc(C(=O)NC2CCC(=O)NC2=O)c2cccnc21 (stereo not shown) [Compound 98, N-(2,6-dioxopiperidin-3-yl)-1-methyl-1H-pyrrolo[2,3-b]pyridine-3-carboxamide] | – |
| < 5 µM | CC(C)(C)OC(=O)NCc1ccc(C(=O)NC2CCC(=O)NC2=O)s1 (stereo not shown) [Compound 49, tert-butyl ((5-((2,6-dioxopiperidin-3-yl)carbamoyl)thiophen-2-yl)methyl)carbamate] | – |
| < 5 µM | O=C1CCC(NC(=O)c2cc(O)cs2)C(=O)N1 (stereo not shown) [Compound 53, N-(2,6-dioxopiperidin-3-yl)-4-hydroxythiophene-2-carboxamide] | – |
| 10 to 50 µM | O=C1CCC(NC(=O)c2ccsc2-n2cccn2)C(=O)N1 (stereo not shown) [Compound 39, N-(2,6-dioxopiperidin-3-yl)-2-(1H-pyrazol-1-yl)thiophene-3-carboxamide] | – |
| 5 to 10 µM | O=C1CCC(NC(=O)c2csc(=O)[nH]2)C(=O)N1 (stereo not shown) [Compound 15, N-(2,6-dioxopiperidin-3-yl)-2-oxo-2,3-dihydrothiazole-4-carboxamide] | – |
| < 5 µM | COc1sc(Br)cc1C(=O)NC1CCC(=O)NC1=O (stereo not shown) [Compound 34, 5-bromo-N-(2,6-dioxopiperidin-3-yl)-2methoxythiophene-3-carboxamide] | – |
| < 5 µM | COc1sc(C2CC2)cc1C(=O)NC1CCC(=O)NC1=O (stereo not shown) [Compound 32, 5-cyclopropyl-N-(2,6-dioxopiperidin-3-yl)-2-methoxythiophene-3-carboxamide] | – |
| < 5 µM | CCOc1sccc1C(=O)NC1CCC(=O)NC1=O (stereo not shown) [Compound 28, N-(2,6-dioxopiperidin-3-yl)-2-ethoxythiophene-3-carboxamide] | – |
| < 5 µM | COc1sc(-c2ccccc2)cc1C(=O)NC1CCC(=O)NC1=O (stereo not shown) [Compound 33, N-(2,6-dioxopiperidin-3-yl)-2-methoxy-5-phenylthiophene-3-carboxamide] | – |
| 10 to 50 µM | CC(C)(C)OC(=O)NCc1sccc1C(=O)NC1CCC(=O)NC1=O (stereo not shown) [Compound 63, tert-butyl ((3-((2,6-dioxopiperidin-3-yl)carbamoyl)thiophen-2-yl)methyl)carbamate] | – |
| 5 to 10 µM | COc1scnc1C(=O)NC1CCC(=O)NC1=O (stereo not shown) [Compound 79, N-(2,6-dioxopiperidin-3-yl)-5-methoxythiazole-4-carboxamide] | – |
| < 5 µM | COc1sc(C(C)(C)C)cc1C(=O)NC1CCC(=O)NC1=O (stereo not shown) [Compound 35, 5-(tert-butyl)-N-(2,6-dioxopiperidin-3-yl)-2-methoxythiophene-3-carboxamide] | – |
| 10 to 50 µM | O=C1CCC(NC(=O)c2ncsc2C2CC2)C(=O)N1 (stereo not shown) [Compound 82, 5-Cyclopropyl-N-(2,6-dioxopiperidin-3-yl)thiazole-4-carboxamide] | – |
| < 5 µM | COc1sc(N)nc1C(=O)NC1CCC(=O)NC1=O (stereo not shown) [Compound 80, 2-amino-N-(2,6-dioxopiperidin-3-yl)-5-methoxythiazole-4-carboxamide] | – |

| Structure (SMILES) | Ki [1] | % of IKZF1 protein reduction, IKZF 1 (24 H, 20 μM) (IKZF1) |
| --- | --- | --- |
| CC(=O)Nc1scc(Cl)c1C(=O)NC1CCC(=O)NC1=O (stereo not shown) [Compound 43, 4-chloro-N-(2,6-dioxopiperidin-3-yl)-2-acetamidothiophene-3-carboxamide] | 10 to 50 µM | ≤25% (≤25% for 0-25% of IKZF1 protein reduction) |
